Data on 20 compounds can be found in US6455510B1, “Chemical Compounds” (SmithKline Beecham Corporation, priority 1997, dated 2002).

Assay [1] deals with T1, human adenosine A1 receptor (Homo sapiens, UniProt P30542).
T1 construct: expressed in transfected cells; host or cells: Chinese hamster ovary (CHO) cells containing CRE/SPAP/HYG reporter elements
T1 sequence (P30542 1-326): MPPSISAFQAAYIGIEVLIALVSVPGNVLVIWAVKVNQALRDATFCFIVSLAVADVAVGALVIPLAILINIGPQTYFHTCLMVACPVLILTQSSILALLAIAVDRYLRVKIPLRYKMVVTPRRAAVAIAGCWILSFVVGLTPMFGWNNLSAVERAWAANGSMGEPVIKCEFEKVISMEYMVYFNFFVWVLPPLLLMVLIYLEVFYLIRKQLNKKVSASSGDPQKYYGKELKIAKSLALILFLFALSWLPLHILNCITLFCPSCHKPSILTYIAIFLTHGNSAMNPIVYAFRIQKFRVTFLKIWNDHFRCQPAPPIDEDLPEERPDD
Briefly: Reporter gene assay (CRE/SPAP) in CHO cells, agonist activity, adenosine A1. The class given is cell-based. As to conditions: CHO cells stably transfected with human adenosine A1 receptor; inhibition of forskolin-stimulated SPAP production; potency relative to NECA=1. Here is the method:
(§1) Reporter Gene Experiments
Agonist activity was measured in Chinese hamster ovary (CHO) cells containing the CRE/SPAP/HYG (CRE=cyclic AMP response element; HYG=hygromycin resistance; SPAP=secreted placental alkaline phosphatase) reporter gene elements, which upon stimulation of cAMP levels produced SPAP. A cell line was used, which was stably transfected with either the human adenosine Al receptor or the human adenosine A3 receptor in addition to the above elements. Cells were plated out in 96-well plates in culture medium and incubated at 37° C. for 1 hour. […] 15 Min later, cAMP levels were stimulated by addition of a maximal concentration of forskolin. All cells were then incubated for a further 5 hours at 37° C., and cooled to room temperature, after which a substrate for the phosphatase (para-nitrophenol phosphate, pNPP), which is converted by SPAP to a coloured reagent) was then added and the 96-well plates were read in a plate reader. From these readings, the concentration-dependence of the inhibition by the agonist for forskolin-stimulated SPAP production can be calculated.
(§2) (ECR=equipotent concentration ratio relative to NECA=1)
A general note: A reporter such as luciferase makes a cellular process visible.

In assay [2] the target is T2, human adenosine A3 receptor (Homo sapiens, UniProt P0DMS8).
T2 construct: expressed in transfected cells; host or cells: Chinese hamster ovary (CHO) cells containing CRE/SPAP/HYG reporter elements
T2 sequence (P0DMS8 1-318): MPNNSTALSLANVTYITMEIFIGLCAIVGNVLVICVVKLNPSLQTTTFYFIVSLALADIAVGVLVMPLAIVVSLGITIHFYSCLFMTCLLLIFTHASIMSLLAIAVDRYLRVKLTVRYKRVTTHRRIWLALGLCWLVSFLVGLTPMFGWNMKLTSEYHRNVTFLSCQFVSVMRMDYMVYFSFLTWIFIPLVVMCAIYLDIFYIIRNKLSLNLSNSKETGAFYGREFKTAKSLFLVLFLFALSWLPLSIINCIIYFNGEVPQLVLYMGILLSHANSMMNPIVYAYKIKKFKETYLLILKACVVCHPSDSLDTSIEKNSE
Description: Reporter gene assay (CRE/SPAP) in CHO cells, agonist activity, adenosine A3. As to conditions: CHO cells stably transfected with human adenosine A3 receptor; inhibition of forskolin-stimulated SPAP production; potency relative to NECA=1. The class given is cell-based. The method, then: as §1
Agonist activity was measured in Chinese hamster ovary (CHO) cells containing the CRE/SPAP/HYG (CRE=cyclic AMP response element; HYG=hygromycin resistance; SPAP=secreted placental alkaline phosphatase) reporter gene elements, which upon stimulation of cAMP levels produced SPAP. A cell line was used, which was stably transfected with either the human adenosine Al receptor or the human adenosine A3 receptor in addition to the above elements. Cells were plated out in 96-well plates in culture medium and incubated at 37° C. for 1 hour. For measurement of potency, agonists were added to the appropriate wells at a concentration range of approximately 10^−10-10^−5M. 15 Min later, cAMP levels were stimulated by addition of a maximal concentration of forskolin. All cells were then incubated for a further 5 hours at 37° C., and cooled to room temperature, after which a substrate for the phosphatase (para-nitrophenol phosphate, pNPP), which is converted by SPAP to a coloured reagent) was then added and the 96-well plates were read in a plate reader. From these readings, the concentration-dependence of the inhibition by the agonist for forskolin-stimulated SPAP production can be calculated. One of the agonists tested on each 96-well plate was the standard non-selective agonist, N-ethylcarboxamidoadenosine (NECA), and the potency of all test agonists is expressed relative to that of the NECA standard.
as §2

As for `CCNC(=O)N1CCC(Nc2nc(Cl)nc3c2ncn3[C@@H]2O[C@H](CF)[C@@H](O)[C@H]2O)CC1` [Example 29, 4-[2-Chloro-9-(5S-fluoromethyl-3R,4S-dihydroxy-tetrahydro-furan-2R-yl)-9H-purin-6-ylamino]-piperidine-1-carboxylic acid ethylamide], the “A1 Receptor, Reporter Gene Assay ECR (equipotent concentration ratio relative to NECA=1)” value in assay [1] is 51.60. Also, the “A3 Receptor, Reporter Gene Assay ECR (equipotent concentration ratio relative to NECA=1)” value in assay [2] is recorded as above 236.00. In the same order, the values of `CNS(=O)(=O)CCNc1ncnc2c1ncn2[C@@H]1O[C@H](CF)[C@H](O)[C@H]1O` [Example 18, 2-[9-(5S-Fluoromethyl-3R,4R-dihydroxy-tetrahydro-furan-2R-yl)-9H-purin-6-ylamino]-ethanesulfonic acid methylamide] are 0.71 and above 353.00. For `O[C@@H]1[C@H](O)[C@@H](CF)O[C@H]1n1cnc2c(NC3CCSCC3)ncnc21` [Example 21, 5′-Deoxy-5′-fluoro-N-(tetrahydro-thiopyran-4-yl)-adenosine], the “A1 Receptor, Reporter Gene Assay ECR (equipotent concentration ratio relative to NECA=1)” value in assay [1] is given as 1.64. Also, in assay [2], the “A3 Receptor, Reporter Gene Assay ECR (equipotent concentration ratio relative to NECA=1)” value is above 353.00. Take `O[C@@H]1[C@H](O)[C@@H](CF)O[C@H]1n1cnc2c(N[C@H]3CCC[C@@H]3O)ncnc21` [Example 13, 5′-Deoxy-5′-fluoro-N-(2S-hydroxy-cyclopent-(S)-yl)-adenosine]: the “A3 Receptor, Reporter Gene Assay ECR (equipotent concentration ratio relative to NECA=1)” value in assay [2] is reported as above 152.00.

As to `CC(F)(F)[C@H]1O[C@@H](n2cnc3c(NC4CC5CCC4C5)ncnc32)[C@H](O)[C@@H]1O` (stereo partly drawn) [Example 5, (2R,3R,4S,5S)-2-[6-(Bicyclo[2.2.1]hept-2-ylamino)-purin-9-yl]-5-(1,1-difluoro-ethyl)-tetrahydro-furan-3,4-diol], the “A1 Receptor, Reporter Gene Assay ECR (equipotent concentration ratio relative to NECA=1)” value in assay [1] is given as 7.14. The “A3 Receptor, Reporter Gene Assay ECR (equipotent concentration ratio relative to NECA=1)” value in assay [2] is reported as above 257.00. On the same counts, the results for `CCCCOC(=O)N1CCC(Nc2nc(Cl)nc3c2ncn3[C@@H]2O[C@H](CF)[C@@H](O)[C@H]2O)CC1` [Example 26, 4-[2-Chloro-9-(5S-fluoromethyl-3R,4S-dihydroxy-tetrahydro-furan-2R-yl)-9H-purin-6-ylamino]-piperidine-1-carboxylic acid butyl ester] are 4.50 and above 233.00.

`Cc1nc(NC2CCOCC2)c2ncn([C@@H]3O[C@H](CF)[C@@H](O)[C@H]3O)c2n1` [Example 2, 5′-Deoxy-5′-fluoro-2-methyl-N-(tetrahydro-pyran-4-yl)-adenosine]: the “A1 Receptor, Reporter Gene Assay ECR (equipotent concentration ratio relative to NECA=1)” value in assay [1] was 11.8. Moreover, the “A3 Receptor, Reporter Gene Assay ECR (equipotent concentration ratio relative to NECA=1)” value in assay [2] was above 226.00.

Consider `O[C@@H]1[C@H](O)[C@@H](CF)O[C@H]1n1cnc2c(N[C@H]3CCC[C@@H]3O)nc(Cl)nc21` [Example 7, 2-Chloro-5′-deoxy-5′-fluoro-N-(2S-hydroxy-cyclopent-(S)-yl)adenosine], for which the “A3 Receptor, Reporter Gene Assay ECR (equipotent concentration ratio relative to NECA=1)” value in assay [2] is given as above 91.00. As to `CC(C)(C)Nc1ncnc2c1ncn2[C@@H]1O[C@H](CF)[C@@H](O)[C@H]1O` [Example 20, N-tert-Butyl-5′-deoxy-5′-fluoro-adenosine], the “A1 Receptor, Reporter Gene Assay ECR (equipotent concentration ratio relative to NECA=1)” value in assay [1] worked out at 8.17. The “A3 Receptor, Reporter Gene Assay ECR (equipotent concentration ratio relative to NECA=1)” value in assay [2] is on record as above 353.00. On to `CC(C)CNc1nc(Cl)nc2c1ncn2[C@@H]1O[C@H](CF)[C@@H](O)[C@H]1O` [Example 22, 2-Chloro-5′-deoxy-5′-fluoro-N-isobutyl-adenosine], for which, in assay [1], the “A1 Receptor, Reporter Gene Assay ECR (equipotent concentration ratio relative to NECA=1)” value was found to be 3.30. Further, the “A3 Receptor, Reporter Gene Assay ECR (equipotent concentration ratio relative to NECA=1)” value in assay [2] is above 145.00. On the same counts, the results for `CC(=O)N1CCC(Nc2nc(Cl)nc3c2ncn3[C@@H]2O[C@H](CF)[C@@H](O)[C@H]2O)CC1` [Example 10, 1-{4-[2-Chloro-9-(5S-fluoromethyl-3R,4S-dihydrox-tetrahydro-furan-2R-yl)-9H-purin-6-ylamino]-piperidin-1-yl}-ethanone] are 66.80 and above 162.00. Regarding `O[C@@H]1[C@H](O)[C@@H](CF)O[C@H]1n1cnc2c(NC3CC4CCC3C4)ncnc21` (stereo partly drawn) [Example 11, N-(endo-Bicyclo[2.2.1]hept-2-yl)-5′-deoxy-5′-fluoro-adenosine], the “A3 Receptor, Reporter Gene Assay ECR (equipotent concentration ratio relative to NECA=1)” value in assay [2] is given as above 152.00. Take `CS(=O)(=O)N1CCC(Nc2nc(Cl)nc3c2ncn3[C@@H]2O[C@H](CF)[C@@H](O)[C@H]2O)CC1` [Example 23, 2-Chloro-5′-deoxy-5′-fluoro-N-(1-methanesulfonyl-piperidin-4-yl)-adenosine]: the “A1 Receptor, Reporter Gene Assay ECR (equipotent concentration ratio relative to NECA=1)” value in assay [1] was found to be 11.20. Further, the “A3 Receptor, Reporter Gene Assay ECR (equipotent concentration ratio relative to NECA=1)” value in assay [2] is recorded as 48.90. In the case of `O[C@@H]1[C@H](O)[C@@H](CF)O[C@H]1n1cnc2c(NC3CCOCC3)nc(Cl)nc21` [Example 3, 2-Chloro-5′-deoxy-5′-fluoro-N-(tetrahydro-pyran-4-yl)-adenosine], the “A1 Receptor, Reporter Gene Assay ECR (equipotent concentration ratio relative to NECA=1)” value in assay [1] worked out at 2.41. Besides, the “A3 Receptor, Reporter Gene Assay ECR (equipotent concentration ratio relative to NECA=1)” value in assay [2] was above 139.00. In the case of `O[C@@H]1[C@H](O)[C@@H](CF)O[C@H]1n1cnc2c(NC3CC4CCC3C4)nc(Cl)nc21` (stereo partly drawn) [Example 25, N-(exo-Bicyclo[2.2.1]hept-2-yl)-2-chloro-5′-deoxy-5′-fluoro-adenosine], the “A3 Receptor, Reporter Gene Assay ECR (equipotent concentration ratio relative to NECA=1)” value in assay [2] is reported as above 151.00. On to `O=S1(=O)CCC(Nc2nc(Cl)nc3c2ncn3[C@@H]2O[C@H](CF)[C@@H](O)[C@H]2O)CC1` [Example 15, 2-Chloro-5′-deoxy-N-(1,1-dioxo-hexahydro-1δ6-thiopyran-4-yl)-5′-fluoro-adenosine], for which, in assay [1], the “A1 Receptor, Reporter Gene Assay ECR (equipotent concentration ratio relative to NECA=1)” value came out at 9.16. In addition, in assay [2], the “A3 Receptor, Reporter Gene Assay ECR (equipotent concentration ratio relative to NECA=1)” value is given as above 435.00. Regarding `O[C@@H]1[C@H](O)[C@@H](CF)O[C@H]1n1cnc2c(N[C@@H]3CCC[C@H]3F)nc(Cl)nc21` [Example 6, 2-Chloro-5-deoxy-5′-fluoro-N-(2R-fluoro-cyclopent-(R)-yl)-adenosine], the “A3 Receptor, Reporter Gene Assay ECR (equipotent concentration ratio relative to NECA=1)” value in assay [2] is above 156.00. As to `O[C@@H]1[C@H](O)[C@@H](C(F)(F)F)O[C@H]1n1cnc2c(NC3CCOCC3)nc(Cl)nc21` [Example 4, (2R,3 R,4S,5S)-2-[2-Chloro-6-(tetrahydro-pyran-4-ylamino)-purin-9-yl]-5-trifluoromethyl-tetrahydro-furan-3,4-diol], in assay [1], the “A1 Receptor, Reporter Gene Assay ECR (equipotent concentration ratio relative to NECA=1)” value was 190.10. `O=S1(=O)CCC(Nc2ncnc3c2ncn3[C@@H]2O[C@H](CF)[C@@H](O)[C@H]2O)CC1` [Example 27]: in assay [2], the “A3 Receptor, Reporter Gene Assay ECR (equipotent concentration ratio relative to NECA=1)” value is above 162.00. Same read-out and setting: the figure for `O[C@@H]1[C@H](O)[C@@H](CF)O[C@H]1n1cnc2c(NC3CC4CCC3C4)nc(Cl)nc21` (stereo partly drawn) [Example 8, N-(endo-Bicyclo[2.2.1]hept-2-yl)-2-chloro-5′-deoxy-5′-fluoro-adenosine] is above 91.00.
